{"source": "patent US12370187B2", "about": "“Composition containing antitumor drug, and preparation method thereof and use thereof” (KUNSHAN XINYUNDA BIOTECH CO., LTD., priority 2021, dated 2025)", "key": {"[1]": {"test_system": "human triple-negative breast cancer MDA-MB-231", "test": "Anti-breast tumor activity, subcutaneously implanted MDA-MB-231 (Example 22)", "format": "in vivo, BALB/c nude mice", "conditions": "Protocol I; 60 mg/kg iv"}, "human colon cancer HT-29": {"test_system": "human colon cancer HT-29", "test": "Anti-colon cancer activity, subcutaneously implanted HT-29 (Example 23)", "format": "in vivo, BALB/c nude mice", "conditions": "Protocol I; 60 mg/kg iv"}, "[2]": {"test_system": "human triple-negative breast cancer cell line MDA-MB-231", "test": "In vivo pharmacodynamic study on MDA-MB-231 tumor (Example 24)", "conditions": "for Body weight increase compared with before administration: mouse, in vivo", "description": "One week after the last administration, tumors were taken from all the mice and weighed.\nThe clinical symptoms observed during the experiment were recorded in the raw data. Tumor volume was calculated by the following formula: […]\nRelative tumor proliferation rate (T/C (%)) represents a ratio in percentage of relative tumor volumes or tumor weights of a treatment group and a control group at a time point, which was calculated by the following formula: […]\nRelative tumor inhibition rate (TGI (%)) was calculated by the following formula: […]"}, "[3]": {"test_system": "human colon cancer cell line HCT116", "conditions": "for RTV / Tumor Weight: D 43", "from_the_text": "One week after the last dose, tumors were taken from all mice, weighed, and photographed."}, "[4]": {"test_system": "human ovarian cancer cell line SKOV-3", "conditions": "for RTV / Tumor Weight: D 42", "from_the_text": "SKOV-3 tumor masses were subcutaneously inoculated to 80 BALB/c nude mice."}, "[5]": {"test_system": "human colon cancer cell line SW620", "conditions": "for RTV (D 41) / T/C (%) RTV / T/C (%) TW / Tumor Weight (mg) (D 41): D 41"}, "[6]": {"test_system": "human colon cancer cell line SW620", "test": "In vivo pharmacodynamic study in SW620 model (Example 34)", "conditions": "60 mg/kg iv QW × 4"}, "tumor cells": {"test_system": "tumor cells", "conditions": "Zhang et al. 2004; cited from earlier work"}, "[7]": {"conditions": "CPT-11 80 mg/kg iv QW × 4, 2 surviving animals"}}, "note": "Counter-ions that a name gives are not always drawn. Like-named read-outs stand apart in the source and are kept apart here.", "data": [{"molecule": "CCc1c2c(nc3ccc(OC(=O)N4CCC(N5CCCCC5)CC4)cc13)-c1cc3c(c(=O)n1C2)COC(=O)[C@]3(O)CC", "note": "[CPT-11, irinotecan hydrochloride]", "values": [{"measurement": "Tumor Inhibition Rate", "setting": "[1]", "result": 71, "unit": "%"}, {"measurement": "Tumor Inhibition Rate", "setting": "human colon cancer HT-29", "result": 47, "unit": "%"}, {"measurement": "Animal death", "setting": "[2]; CPT-11 60 mg/kg", "result": "No animal died"}, {"measurement": "T/C (%) RTV", "setting": "[2]; CPT-11 60 mg/kg iv QW × 3", "result": 24, "unit": "%"}, {"measurement": "T/C (%) TW", "setting": "[2]; CPT-11 60 mg/kg iv QW × 3", "result": 28, "unit": "%"}, {"measurement": "RTV", "setting": "[2]; CPT-11 60 mg/kg iv QW × 3, D33", "result": "4.59 ± 1.04"}, {"measurement": "T/C (%) RTV", "setting": "[2]; CPT-11 80 mg/kg iv QW × 3", "result": 13, "unit": "%"}, {"measurement": "T/C (%) TW", "setting": "[2]; CPT-11 80 mg/kg iv QW × 3", "result": 16, "unit": "%"}, {"measurement": "RTV", "setting": "[2]; CPT-11 80 mg/kg iv QW × 3, D33", "result": "2.46 ± 0.41"}, {"measurement": "Tumor Weight", "setting": "[2]; CPT-11 80 mg/kg iv QW × 3, D33", "result": "391 ± 143", "unit": "mg"}, {"measurement": "Animal death", "setting": "[2]; CPT-11 80 mg/kg, 7 animals", "result": "one animal died"}, {"measurement": "Body weight increase compared with before administration", "setting": "[2]; 60 mg/kg", "result": 2.41, "unit": "%"}, {"measurement": "Body weight increase compared with before administration", "setting": "[2]; 80 mg/kg", "result": 1.950, "unit": "%"}, {"measurement": "Reduction in body weight at the end of the experiment compared to before administration", "setting": "[3]; CPT-11 60 mg/kg", "result": 14.41, "unit": "%"}, {"measurement": "T/C (%) RTV", "setting": "[3]; CPT-11 60 mg/kg iv QW × 4", "result": 35, "unit": "%"}, {"measurement": "T/C (%) TW", "setting": "[3]; CPT-11 60 mg/kg iv QW × 4", "result": 26, "unit": "%"}, {"measurement": "RTV", "setting": "[3]; CPT-11 60 mg/kg iv QW × 4", "result": "4.42 ± 1.05"}, {"measurement": "Tumor Weight", "setting": "[3]; CPT-11 60 mg/kg iv QW × 4", "result": "370 ± 87", "unit": "mg"}, {"measurement": "Reduction in body weight at the end of the experiment compared to before administration", "setting": "[3]; CPT-11 80 mg/kg", "result": 16.00, "unit": "%"}, {"measurement": "T/C (%) RTV", "setting": "[3]; CPT-11 80 mg/kg iv QW × 4", "result": 16, "unit": "%"}, {"measurement": "T/C (%) TW", "setting": "[3]; CPT-11 80 mg/kg iv QW × 4", "result": 12, "unit": "%"}, {"measurement": "RTV", "setting": "[3]; CPT-11 80 mg/kg iv QW × 4", "result": "1.95 ± 0.31"}, {"measurement": "Tumor Weight", "setting": "[3]; CPT-11 80 mg/kg iv QW × 4", "result": "173 ± 34", "unit": "mg"}, {"measurement": "T/C (%) RTV", "setting": "[4]; CPT-11 60 mg/kg iv QW × 4", "result": 64, "unit": "%"}, {"measurement": "T/C (%) TW", "setting": "[4]; CPT-11 60 mg/kg iv QW × 4", "result": 67, "unit": "%"}, {"measurement": "RTV", "setting": "[4]; CPT-11 60 mg/kg iv QW × 4", "result": "9.20 ± 0.79"}, {"measurement": "Tumor Weight", "setting": "[4]; CPT-11 60 mg/kg iv QW × 4", "result": "1179 ± 150", "unit": "mg"}, {"measurement": "T/C (%) RTV", "setting": "[4]; CPT-11 80 mg/kg iv QW × 4", "result": 79, "unit": "%"}, {"measurement": "T/C (%) TW", "setting": "[4]; CPT-11 80 mg/kg iv QW × 4", "result": 95, "unit": "%"}, {"measurement": "RTV", "setting": "[4]; [7]", "result": "11.44 ± 0.21"}, {"measurement": "Tumor Weight", "setting": "[4]; [7]", "result": "1664 ± 258", "unit": "mg"}, {"measurement": "Animals died", "setting": "[4]; CPT-11 80 mg/kg, 8 animals", "result": 6}, {"measurement": "Body weight increase at the end of the experiment", "setting": "[4]; CPT-11 high dose (80 mg/kg), two living animals", "result": 11.94, "unit": "%"}, {"measurement": "Body weight increase at the end of the experiment", "setting": "[4]; CPT-11 low dose (60 mg/kg)", "result": 6.97, "unit": "%"}, {"measurement": "RTV (D 41)", "setting": "[5]; 60 mg/kg", "result": "4.69 ± 1.12"}, {"measurement": "T/C (%) RTV", "setting": "[5]; 60 mg/kg", "result": 28, "unit": "%"}, {"measurement": "T/C (%) TW", "setting": "[5]; 60 mg/kg", "result": 27, "unit": "%"}, {"measurement": "Tumor Weight (mg) (D 41)", "setting": "[5]; 60 mg/kg", "result": "465 ± 91", "unit": "mg"}, {"measurement": "RTV (D 41)", "setting": "[5]; 80 mg/kg", "result": "5.95 ± 1.22"}, {"measurement": "T/C (%) RTV", "setting": "[5]; 80 mg/kg", "result": 36, "unit": "%"}, {"measurement": "T/C (%) TW", "setting": "[5]; 80 mg/kg", "result": 28, "unit": "%"}, {"measurement": "Tumor Weight (mg) (D 41)", "setting": "[5]; 80 mg/kg", "result": "495 ± 91", "unit": "mg"}, {"measurement": "Body weight reduction at the end of the experiment compared with before administration", "setting": "[5]; CPT-11 high dose (80 mg/kg)", "result": 5.810, "unit": "%"}, {"measurement": "Body weight reduction at the end of the experiment compared with before administration", "setting": "[5]; CPT-11 low dose (60 mg/kg)", "result": 0.99, "unit": "%"}, {"measurement": "T/C (%) TV", "setting": "[6]", "result": 8, "unit": "%"}, {"measurement": "T/C (%) TW", "setting": "[6]", "result": 7, "unit": "%"}, {"measurement": "TW (mg) (mean ± SEM)", "setting": "[6]", "result": "99 ± 43", "unit": "mg"}, {"measurement": "Body Weight (g, mean ± SEM) Day 11", "setting": "[6]; Day 11", "result": "18.5 ± 0.6", "unit": "g"}, {"measurement": "TV (mm^3) Day 11 (mean ± SEM)", "setting": "[6]; Day 11", "result": "157 ± 18", "unit": "mm^3"}, {"measurement": "Body Weight (g, mean ± SEM) Day 39", "setting": "[6]; Day 39", "result": "19.2 ± 0.7", "unit": "g"}, {"measurement": "TV (mm^3) Day 39 (mean ± SEM)", "setting": "[6]; Day 39", "result": "154 ± 57", "unit": "mm^3"}, {"measurement": "Body Weight Change (%)", "setting": "[6]; Day 39 vs Day 11", "result": "+3.8%"}]}, {"molecule": "CCc1c2c(nc3ccc(O)cc13)-c1cc3c(c(=O)n1C2)COC(=O)[C@]3(O)CC", "note": "[SN-38, 7-ethyl-10-hydroxycamptothecin]", "values": [{"measurement": "Efficacy on some tumor cells relative to CPT-11", "setting": "tumor cells", "result": "100-1000 times"}]}]}
